The values below come from patent publication US12409200B2, “Composition for treating hair loss or promoting hair growth comprising milk thistle flower extract as an active ingredient” (BioSpectrum, Inc., priority 2021, dated 2025).

This data set deals with human skin. Kind of data set: Human skin safety test: repeated insult patch test. In kind it is in vivo. The note with it: for Number of subjects showing reaction ±: grade ±. As for the experimental part:
In order to confirm that the extract of seed-removed milk thistle flowers according to the present invention is safe for human skin, a skin safety verification test was performed. To this end, a repeated insult patch test was conducted. Nourishing creams containing the seed-removed milk thistle extract of Example 1 in amounts of 0.1%, 0.5% and 1%, respectively, were prepared. Specifically, a water phase containing purified water, triethanolamine and propylene glycol was dissolved by heating to 70° C. and then emulsified by adding a solution obtained by dissolving beeswax, liquid paraffin, an oil component, an emulsifier and a preservative by heating to 70° C. After completion of emulsification, the solution was cooled to 45° C., and the seed-removed milk thistle flower extract was added thereto in amounts of 0.1%, 0.5% and 1% and dispersed therein, followed by cooling to 30° C. As the content of the extract of seed-removed milk thistle flowers was increased from 0.1% to 0.5% and 1%, the content of liquid paraffin was decreased from 9.91% to 9.51% and 9.01%, respectively, thereby preparing nourishing creams. Using the nourishing creams prepared as described above, a repeated insult patch test was conducted on the upper arm areas of 30 healthy adults every other day for a total of 9 times for 24 hours per time to determine whether the extract of seed-removed milk thistle flowers irritated the skin. The patch test was performed using a Finn chamber (Epitest Ltd., Finland). 15 μl of each of the external skin preparations was dropped into the chamber, and then the patch test was performed. Average degree of reaction=[[(reaction index×degree of reaction)/(total number of subjects×highest score (4)]×100]÷number of tests (9) [Equation 2] In the degree of reaction, ± represents a score of 1 point, […], and ++ represents a score of 4. When the average degree of reaction is less than 3, the corresponding composition is determined to be safe.

For `CC(C)=CCC/C(C)=C/CC/C(C)=C/CC/C=C(\C)CC/C=C(\C)CCC=C(C)C` [Control (squalene), squalene], the “Average degree of reaction” value (30 healthy adults, upper arm, 9 patch tests of 24 hours, Equation 2, less than 3 = safe) is on record as 0.18. Moreover, the “Number of subjects showing reaction ±” value by setting is: (Week 1, 1st test) 1; (Week 1, 2nd test) 1.
